Assay [1] concerns the target T1, TYK2 (Homo sapiens, UniProt P29597).
T1 construct: made in house
Briefly: Competition binding assay to determine Kd against JAK kinases: TYK2. How it is done: (§1) Competition binding assays used herein were developed, validated and performed as described in Fabian et al., Nature Biotechnology 2005, 23, 329-336. Kinases were produced as fusions to T7 phage (See, Fabian et al. or WO04/015142) or alternatively, the kinases were expressed in HEK-293 cells and subsequently tagged with DNA for PCR detection (See, WO08/005,310). For the binding assays, streptavidin-coated magnetic beads were treated with biotinylated affinity ligands for 30 min at rt to generate affinity resins. The liganded beads were blocked with excess biotin and washed with blocking buffer (SeaBlock (Pierce), 1% BSA, 0.05% Tween 20, 1 mM DTT) to remove unbound ligand and to reduce non-specific binding. Binding reactions were assembled by combining kinase, liganded affinity beads, and test compounds in 1× binding buffer (20% SeaBlock, 0.17×PBS, 0.05% Tween 20, 6 mM DTT). Test compounds were prepared as 100× stocks in DMSO and rapidly diluted into the aqueous environment. DMSO was added to control assays lacking a test compound. Primary screen interactions were performed in polypropylene 384-well plates in a final volume of 34 μL, while Kd determinations were performed in polystyrene 96-well plates in a final volume of 135 μL. The assay plates were incubated at room temperature with shaking for 1 hour, long enough for binding reactions to reach equilibrium, and the affinity beads were washed extensively with wash buffer (1×PBS, 0.05% Tween 20) to remove unbound protein. The beads were then resuspended in elution buffer (1×PBS, 0.05% Tween 20, 2 μM non-biotinylated affinity ligand) and incubated at room temperature with shaking for 30 min. The kinase concentration in the eluates was measured by quantitative PCR. Each kinase was tested individually against each compound. Kds were determined using eleven serial threefold dilutions. A selectivity score, which is a quantitative measure of selectivity of a compound against a panel of enzymes, may be calculated for a compound by dividing the number of enzymes for which a compound meets a set criteria, (for example, a binding constant of 100 nM or less), by the total number of enzymes tested.

Assay [2] has as its target T2, JAK3 (Homo sapiens, UniProt P52333).
T2 construct: made in house
T2 sequence (P52333 1-1124): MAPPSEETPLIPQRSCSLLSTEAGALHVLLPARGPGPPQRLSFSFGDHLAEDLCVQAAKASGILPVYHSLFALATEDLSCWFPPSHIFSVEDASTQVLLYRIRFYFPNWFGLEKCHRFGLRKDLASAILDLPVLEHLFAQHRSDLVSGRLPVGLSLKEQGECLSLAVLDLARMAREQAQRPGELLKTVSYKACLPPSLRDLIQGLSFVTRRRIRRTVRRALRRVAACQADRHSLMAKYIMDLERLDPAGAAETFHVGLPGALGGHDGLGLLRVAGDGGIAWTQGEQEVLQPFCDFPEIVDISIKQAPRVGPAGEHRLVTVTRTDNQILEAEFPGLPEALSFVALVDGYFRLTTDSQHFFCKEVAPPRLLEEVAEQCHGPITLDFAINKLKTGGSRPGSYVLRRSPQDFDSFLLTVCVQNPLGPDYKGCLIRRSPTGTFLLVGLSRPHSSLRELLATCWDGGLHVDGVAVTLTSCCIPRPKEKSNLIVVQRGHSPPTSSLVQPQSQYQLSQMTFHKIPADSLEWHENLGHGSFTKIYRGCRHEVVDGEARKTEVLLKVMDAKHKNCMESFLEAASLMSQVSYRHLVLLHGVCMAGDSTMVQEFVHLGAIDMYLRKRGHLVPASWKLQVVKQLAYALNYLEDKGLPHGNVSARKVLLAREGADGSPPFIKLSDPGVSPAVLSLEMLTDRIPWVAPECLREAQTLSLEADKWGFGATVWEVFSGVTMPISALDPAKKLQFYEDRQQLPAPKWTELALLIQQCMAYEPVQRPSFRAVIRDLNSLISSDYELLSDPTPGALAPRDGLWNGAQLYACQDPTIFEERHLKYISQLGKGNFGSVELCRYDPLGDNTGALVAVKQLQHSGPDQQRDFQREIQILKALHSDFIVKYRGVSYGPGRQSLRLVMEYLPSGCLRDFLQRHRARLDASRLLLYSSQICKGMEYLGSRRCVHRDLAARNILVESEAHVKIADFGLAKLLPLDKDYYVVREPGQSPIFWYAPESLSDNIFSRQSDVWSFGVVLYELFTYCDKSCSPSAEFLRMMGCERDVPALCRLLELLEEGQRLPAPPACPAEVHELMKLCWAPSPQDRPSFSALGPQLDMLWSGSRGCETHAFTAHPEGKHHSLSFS
Kind of assay: Competition binding assay to determine Kd against JAK kinases: JAK3. How it is done: as §1

Assay [3] relates to GM-CSFR/JAK2/STAT5 pathway in CSTF-1 cells. Kind of assay: CSTF-1 cell-based reporter assay (beta-lactamase reporter, GM-CSF stimulated). As to conditions: Homo sapiens, GM-CSF at 2 ng/mL, 4 hours, read-out: Cell Assay: CS TF-1 reporter assay IC50. The procedure:
CSTF-1 cells are derived from the human erythroleukemia cell line that is growth dependent on GM-CSF and has an intact GM-CSFR/JAK2/STAT5 pathway. The cell line contains stably integrated beta-lactamase reporter gene under the control of the […] (irf 1) response element recognized by the activated transcription factor STAT5. csTF-1 cells (Invitrogen K1219) were washed with assay media (97% OPTIMEM/0.5% dialyzed FBS/0.1 mM NEAA/1 mM Na pyr/P/S) and seeded in the same media at 5×10^5 cell/mL in T150 flask. After 16 hour incubation, cells were seeded at 2×10^5 cell/well in 50 μl volume, into Costar, clear bottom, 96-well assay plates. Serial dilutions of compounds were added to the plates with final DMSO concentration at 0.5% and GM-CSF at 2 ng/mL and the plates were then incubated at 30° C. and 5% CO2 for 4 hours. The plates were brought to room temperature before adding Substrate Mixture according to manufacturer's protocol (Invitrogen, Catalog #K1085). The assay plates containing the substrate mixture were incubated in the dark at room temperature for 2 hours. Blue and green fluorescence was measured with excitation at 409 nm and emission at 460 nm (for blue) and excitation at 409 nm and emission at 530 nm (for green) using Spectra Max Gemini EM.
(In general: Reporter assays use an easily measured gene product as a stand-in for the process of interest.)

Assay [4] addresses T3, JAK2 (Homo sapiens, UniProt O60674).
T3 construct: made in house
Briefly: Competition binding assay to determine Kd against JAK kinases: JAK2. How it is done:
as §1

Assay [5] concerns panel of distinct kinases excluding mutant variants, typically 359 or 386 kinases. Briefly: Kinase selectivity score S10 from competition binding panel. As to conditions: compound at 10 μM; fraction of kinases with inhibition of 90% or greater. How it is done: as §1

T1 sequence (P29597 whole entry): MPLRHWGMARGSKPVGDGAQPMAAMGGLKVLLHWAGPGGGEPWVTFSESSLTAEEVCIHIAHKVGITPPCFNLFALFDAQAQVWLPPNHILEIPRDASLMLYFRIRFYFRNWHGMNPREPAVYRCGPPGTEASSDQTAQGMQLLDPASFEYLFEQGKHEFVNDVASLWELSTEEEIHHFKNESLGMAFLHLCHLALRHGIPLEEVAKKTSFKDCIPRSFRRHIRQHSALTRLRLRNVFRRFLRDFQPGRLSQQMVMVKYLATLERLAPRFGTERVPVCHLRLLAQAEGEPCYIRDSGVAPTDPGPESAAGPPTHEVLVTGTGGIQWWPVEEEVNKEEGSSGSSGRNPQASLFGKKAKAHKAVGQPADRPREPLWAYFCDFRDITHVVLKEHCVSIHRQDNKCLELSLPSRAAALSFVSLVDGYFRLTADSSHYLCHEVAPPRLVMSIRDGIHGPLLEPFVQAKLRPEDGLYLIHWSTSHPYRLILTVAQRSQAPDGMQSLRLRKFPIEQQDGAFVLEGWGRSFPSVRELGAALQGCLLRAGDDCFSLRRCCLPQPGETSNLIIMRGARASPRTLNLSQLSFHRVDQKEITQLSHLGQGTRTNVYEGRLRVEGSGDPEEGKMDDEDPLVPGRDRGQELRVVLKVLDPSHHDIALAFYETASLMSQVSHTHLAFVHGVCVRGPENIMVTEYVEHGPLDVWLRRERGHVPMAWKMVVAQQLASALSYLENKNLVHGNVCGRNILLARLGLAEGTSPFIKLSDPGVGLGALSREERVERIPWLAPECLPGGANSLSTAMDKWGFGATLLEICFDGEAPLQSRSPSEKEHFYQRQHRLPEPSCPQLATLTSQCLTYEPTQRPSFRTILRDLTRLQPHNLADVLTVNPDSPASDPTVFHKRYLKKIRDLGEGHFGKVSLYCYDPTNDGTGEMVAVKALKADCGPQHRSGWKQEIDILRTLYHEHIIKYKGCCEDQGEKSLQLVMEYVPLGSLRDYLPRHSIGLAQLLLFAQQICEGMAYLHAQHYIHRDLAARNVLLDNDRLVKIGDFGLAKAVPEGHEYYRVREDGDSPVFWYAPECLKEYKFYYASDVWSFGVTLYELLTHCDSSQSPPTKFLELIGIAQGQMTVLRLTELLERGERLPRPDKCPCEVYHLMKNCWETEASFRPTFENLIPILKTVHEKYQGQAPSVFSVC
T3 sequence (O60674 whole entry): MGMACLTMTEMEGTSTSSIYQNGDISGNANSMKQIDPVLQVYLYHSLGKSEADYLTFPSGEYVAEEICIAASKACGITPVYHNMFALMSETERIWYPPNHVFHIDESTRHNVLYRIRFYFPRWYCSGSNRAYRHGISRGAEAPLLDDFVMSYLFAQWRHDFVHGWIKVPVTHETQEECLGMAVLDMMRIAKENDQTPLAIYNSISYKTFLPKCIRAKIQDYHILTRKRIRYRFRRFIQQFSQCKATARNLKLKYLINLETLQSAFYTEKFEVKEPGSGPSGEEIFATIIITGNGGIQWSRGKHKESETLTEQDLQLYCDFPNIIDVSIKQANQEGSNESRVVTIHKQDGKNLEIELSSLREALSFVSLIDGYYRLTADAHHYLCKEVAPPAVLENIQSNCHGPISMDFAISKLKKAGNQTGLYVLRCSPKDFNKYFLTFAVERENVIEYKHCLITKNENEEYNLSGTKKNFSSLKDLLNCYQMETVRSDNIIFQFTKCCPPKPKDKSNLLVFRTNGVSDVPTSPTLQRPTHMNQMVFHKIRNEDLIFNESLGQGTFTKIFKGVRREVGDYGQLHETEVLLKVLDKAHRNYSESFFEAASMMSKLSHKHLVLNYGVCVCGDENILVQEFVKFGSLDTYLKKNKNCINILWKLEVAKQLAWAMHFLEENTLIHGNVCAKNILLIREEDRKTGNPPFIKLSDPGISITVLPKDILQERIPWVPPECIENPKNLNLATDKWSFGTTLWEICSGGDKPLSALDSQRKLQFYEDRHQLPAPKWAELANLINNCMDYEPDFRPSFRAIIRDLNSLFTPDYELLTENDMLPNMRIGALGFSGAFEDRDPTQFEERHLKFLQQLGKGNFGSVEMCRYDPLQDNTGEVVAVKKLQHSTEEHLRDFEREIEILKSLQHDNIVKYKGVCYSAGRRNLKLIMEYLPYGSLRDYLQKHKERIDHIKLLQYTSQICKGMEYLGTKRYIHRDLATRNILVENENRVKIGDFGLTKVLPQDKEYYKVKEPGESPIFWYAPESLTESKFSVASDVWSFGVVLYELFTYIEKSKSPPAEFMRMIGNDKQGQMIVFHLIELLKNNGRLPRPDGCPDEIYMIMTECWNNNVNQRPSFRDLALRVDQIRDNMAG

For `O=S(=O)(c1ccc(F)cc1)c1cc2ccccc2c(Nc2ncco2)n1` [Example 23, N-(3-(4-fluorophenylsulfonyl)isoquinolin-1-yl)oxazol-2-amine], the Kd in assay [1] is greater than 100 nM; in assay [2], greater than 100 nM; in assay [4], greater than 50 nM. Besides, the 50% inhibitory concentration (IC50) in assay [3] was greater than 500 nM. The “S-Score: S(10) at 10 μM” value in assay [5] is “A (A ≦ 0.3)”.
`[2H]C([2H])([2H])n1cnc(Nc2nc(S(=O)(=O)c3ccc(F)cc3)cc3ccccc23)c1` [Example 24, 3-((4-fluorophenyl)sulfonyl)-N-(1-methyl-d3-1H-imidazol-4-yl)isoquinolin-1-amine]: the results for the dissociation constant (Kd) in assay [1], in assay [2] and in assay [4] were no more than 10 nM, no more than 10 nM and no more than 5 nM, respectively. Also, in assay [3], the concentration for half-maximal inhibition (IC50) is no more than 100 nM. Moreover, in assay [5], the “S-Score: S(10) at 10 μM” value was “B (0.3 < B ≦ 0.4)”.
On to `CCn1cnc(Nc2nc(S(=O)(=O)c3ccc(F)cc3)cc3ccccc23)c1` [Example 25, N-(1-ethyl-1H-imidazol-4-yl)-3-((4-fluorophenyl)sulfonyl)isoquinolin-1-amine], for which the Kd in assay [1] is no more than 10 nM; in assay [2] it was no more than 10 nM; in assay [4], no more than 5 nM. In addition, the half-inhibitory concentration (IC50) in assay [3] is no more than 100 nM. Moreover, the “S-Score: S(10) at 10 μM” value in assay [5] was “C (0.4 < C ≦ 0.5)”.
As to `Cc1cc(Nc2nc(S(=O)(=O)c3ccc(F)cc3)cc3c(Br)cccc23)n[nH]1` [Example 26, 5-bromo-3-((4-fluorophenyl)sulfonyl)-N-(5-methyl-1H-pyrazol-3-yl)isoquinolin-1-amine], the equilibrium dissociation constant (Kd) in assay [1] was no more than 10 nM; in assay [2] it was no more than 10 nM; in assay [4], no more than 5 nM. For the same compound, in assay [3], the IC50 is no more than 100 nM. The “S-Score: S(10) at 10 μM” value in assay [5] is “A (A ≦ 0.3)”.

A word on the Kd: it is a measure of binding affinity in units of concentration. Broadly, the IC50 is the concentration needed to halve the response being measured.
